US7858635B2 (priority 2005, dated 2010)
Like-named read-outs stand apart in the source and are kept apart here.

Columns and labels:
[1] = biological target: T1, M1 muscarinic receptor (Homo sapiens, UniProt P11229); assay: Functional mobilization of intracellular calcium (FLIPR, Fluo-3), M1-CHO cells; format: cell-based; conditions: for Emax: 100% efficacy is the maximum response obtained with the Carbachol control, read-out: M1 Efficacy
T1 construct: expressed in transfected cells; host or cells: CHO cells (M1-CHO, under zeocin and G418 selection)
T1 sequence (P11229 1-460): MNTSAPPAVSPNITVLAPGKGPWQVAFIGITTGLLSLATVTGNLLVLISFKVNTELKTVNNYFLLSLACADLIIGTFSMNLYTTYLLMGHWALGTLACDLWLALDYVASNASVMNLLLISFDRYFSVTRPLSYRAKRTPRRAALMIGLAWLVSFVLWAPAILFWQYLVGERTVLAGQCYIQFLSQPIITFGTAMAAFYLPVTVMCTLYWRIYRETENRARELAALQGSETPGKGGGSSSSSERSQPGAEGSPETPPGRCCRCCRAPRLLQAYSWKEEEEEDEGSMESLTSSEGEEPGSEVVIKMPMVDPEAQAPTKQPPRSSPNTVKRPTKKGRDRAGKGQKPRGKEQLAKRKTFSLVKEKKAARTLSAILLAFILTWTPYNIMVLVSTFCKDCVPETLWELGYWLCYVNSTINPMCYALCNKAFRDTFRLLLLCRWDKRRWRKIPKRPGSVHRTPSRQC
In short: (§1)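 Fluo-3 read-out, ex 488/em 540 nm, 60 sec on FLIPR 3. For agonist mode, compound added directly; for inhibition, 15 min compound pre-incubation before carbachol at EC80 (added as a 3× solution), or co-application. Buffer pH 7.4 with 1 mM probenecid; DMSO 0.5%.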

[2] = biological target: T2, M4 muscarinic receptor (Homo sapiens, UniProt P08173); assay: Functional mobilization of intracellular calcium (FLIPR, Fluo-3), M4-CHO cells; format: cell-based; conditions: for Emax: 100% efficacy is the maximum response obtained with the Carbachol control, read-out: M4 Efficacy
T2 construct: expressed in transfected cells; host or cells: CHO cells (M4-CHO, under puromycin, zeocin and blasticidin selection)
T2 sequence (P08173 1-479): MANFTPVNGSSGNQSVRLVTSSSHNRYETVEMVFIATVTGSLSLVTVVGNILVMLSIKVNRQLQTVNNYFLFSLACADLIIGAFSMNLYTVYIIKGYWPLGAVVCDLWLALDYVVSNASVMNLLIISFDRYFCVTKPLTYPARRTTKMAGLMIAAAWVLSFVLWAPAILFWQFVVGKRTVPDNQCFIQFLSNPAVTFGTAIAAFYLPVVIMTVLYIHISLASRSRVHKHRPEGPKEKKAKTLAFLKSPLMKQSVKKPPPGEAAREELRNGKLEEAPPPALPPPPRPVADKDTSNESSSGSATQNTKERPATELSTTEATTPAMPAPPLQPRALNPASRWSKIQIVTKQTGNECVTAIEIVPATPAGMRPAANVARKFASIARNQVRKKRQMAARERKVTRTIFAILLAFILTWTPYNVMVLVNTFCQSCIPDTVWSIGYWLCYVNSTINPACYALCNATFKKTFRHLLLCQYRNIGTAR
In short: as §1

[3] = compound nos. 1-454, M1-CHO cells, calcium mobilization
[4] = compound nos. 1-454, M4-CHO cells, calcium mobilization

COc1cccc(N2CCC(N3CCC4(CC3)CN(C(=O)N(C)C)c3ccc(F)cc34)CC2)c1 [compound 441]
M1 Activity ([1]; compound nos. 1-454): ++ (activity was measured to be between 0.7 μM and 3.0 μM) | Emax ([1]; compound nos. 1-454): 65 to 85% | M4 Activity ([2]; compound nos. 1-454): +++ (activity was measured to be less than or equal to 0.1 μM) | Emax ([2]; compound nos. 1-454): 55 to 70%

CC(C)OC(=O)N1CCC(N2CCC3(CC2)CN(C(=O)N(C)C)c2ccc(F)cc23)CC1 [compound 54]
Emax ([1]; compound nos. 1-454): > 85% | M1 Activity [1, 3]: +++ (activity was measured to be less than or equal to 0.7 μM) | Emax ([2]; compound nos. 1-454): 55 to 70% | M4 Activity [2, 4]: ++ (activity was measured to be between 0.1 μM and 4.0 μM)

CN(C)C(=O)N1CC2(CCN(C3CCN(c4cnc5ccccc5n4)CC3)CC2)c2cc(F)ccc21 [compound 460]
Emax ([1]; compound nos. 455-509): > 100% | M1 Activity ([1]; compounds 455-509): +++ (activity was measured to be less than or equal to 2.0 μM) | Emax ([2]; compound nos. 455-509): 25 to 100% | M4 Activity ([2]; compounds 455-509): ++ (activity was measured to be between 2.0 μM and 5.0 μM)

Clc1ccc2c(c1)C1(CCN(CC3CCCCC3)CC1)CN2 [compound 157]
Emax ([1]; compound nos. 1-454): 65 to 85% | M1 Activity [1, 3]: +++ (activity was measured to be less than or equal to 0.7 μM) | Emax ([2]; compound nos. 1-454): > 70% | M4 Activity [2, 4]: + (activity was measured to be greater than or equal to 4.0 μM)

COC(=O)N1CCC(CN2CCC3(CC2)CN(C(C)=O)c2ccc(F)cc23)CC1 [compound 129]
Emax ([1]; compound nos. 1-454): 65 to 85% | M1 Activity [1, 3]: +++ (activity was measured to be less than or equal to 0.7 μM) | Emax ([2]; compound nos. 1-454): < 55% | M4 Activity [2, 4]: + (activity was measured to be greater than or equal to 4.0 μM)

COc1ccc(N2CCC(N3CCC4(CC3)CN(C(=O)N(C)C)c3ccc(F)cc34)CC2)cc1 [compound 442]
M1 Activity ([1]; compound nos. 1-454): ++ (activity was measured to be between 0.7 μM and 3.0 μM) | Emax ([1]; compound nos. 1-454): 65 to 85% | M4 Activity ([2]; compound nos. 1-454): ++ (activity was measured to be between 0.1 μM and 4.0 μM) | Emax ([2]; compound nos. 1-454): 55 to 70%

CCOC(=O)N1CCC(CN2CCC3(CC2)COc2ccc(F)cc23)CC1 [compound 107]
Emax ([1]; compound nos. 1-454): 65 to 85% | M1 Activity [1, 3]: +++ (activity was measured to be less than or equal to 0.7 μM) | Emax ([2]; compound nos. 1-454): < 55% | M4 Activity [2, 4]: + (activity was measured to be greater than or equal to 4.0 μM)

CC(=O)N1CC2(CCN(C3CCC(C(F)(F)F)CC3)CC2)c2cc(F)ccc21 (stereo not shown) [compound 236]
Emax ([1]; compound nos. 1-454): 65 to 85% | M1 Activity [1, 3]: +++ (activity was measured to be less than or equal to 0.7 μM) | Emax ([2]; compound nos. 1-454): 55 to 70% | M4 Activity [2, 4]: ++ (activity was measured to be between 0.1 μM and 4.0 μM)

CC(=O)N[C@H]1CC2(CCN(C3CCCCCCC3)CC2)c2ccccc21 [compound 261]
Emax ([1]; compound nos. 1-454): < 65% | M1 Activity [1, 3]: ++ (activity was measured to be between 0.7 μM and 3.0 μM) | Emax ([2]; compound nos. 1-454): < 55% | M4 Activity [2, 4]: + (activity was measured to be greater than or equal to 4.0 μM)

C/C=C\c1ccc2c(c1)C1(CCN(C3CCN(C(=O)OCC)CC3)CC1)CN2C(C)=O [compound 407]
M1 Activity ([1]; compound nos. 1-454): ++ (activity was measured to be between 0.7 μM and 3.0 μM) | Emax ([1]; compound nos. 1-454): < 65% | M4 Activity ([2]; compound nos. 1-454): + (activity was measured to be greater than or equal to 4.0 μM) | Emax ([2]; compound nos. 1-454): < 55%

CN(C)C(=O)N1CC2(CCN(C3CCN(c4cncc(Cl)n4)CC3)CC2)c2ccccc21 [compound 469]
Emax ([1]; compound nos. 455-509): > 100% | M1 Activity ([1]; compounds 455-509): +++ (activity was measured to be less than or equal to 2.0 μM) | Emax ([2]; compound nos. 455-509): 25 to 100% | M4 Activity ([2]; compounds 455-509): ++ (activity was measured to be between 2.0 μM and 5.0 μM)

O=C(O[C@H]1CCOC1)N1C2CCC1CC(N1CCC3(CCc4ccccc43)CC1)C2 (stereo partly shown) [compound 355]
Emax ([1]; compound nos. 1-454): 65 to 85% | M1 Activity [1, 3]: ++ (activity was measured to be between 0.7 μM and 3.0 μM) | Emax ([2]; compound nos. 1-454): 55 to 70% | M4 Activity [2, 4]: ++ (activity was measured to be between 0.1 μM and 4.0 μM)

CCOC(=O)N1CCC(N2CCC3(CC2)CN(C(=O)N(C)C)c2ccc(F)cc23)CC1 [compound 39]
Emax ([1]; compound nos. 1-454): 65 to 85% | M1 Activity [1, 3]: +++ (activity was measured to be less than or equal to 0.7 μM) | Emax ([2]; compound nos. 1-454): > 70% | M4 Activity [2, 4]: ++ (activity was measured to be between 0.1 μM and 4.0 μM)

CCOC(=O)N1CCC(N2CCC3(CC2)CN(C(=O)N2CCOCC2)c2ccc(F)cc23)CC1 [compound 290]
Emax ([1]; compound nos. 1-454): < 65% | M1 Activity [1, 3]: +++ (activity was measured to be less than or equal to 0.7 μM) | Emax ([2]; compound nos. 1-454): < 55% | M4 Activity [2, 4]: + (activity was measured to be greater than or equal to 4.0 μM)

CCOC(=O)N1CCC(N2CCC3(CC2)CN(C(=O)c2cccnc2)c2ccc(F)cc23)CC1 [compound 144]
Emax ([1]; compound nos. 1-454): > 85% | M1 Activity [1, 3]: +++ (activity was measured to be less than or equal to 0.7 μM) | Emax ([2]; compound nos. 1-454): > 70% | M4 Activity [2, 4]: +++ (activity was measured to be less than or equal to 0.1 μM)

Clc1ccc2c(c1)C1(CCN(C3CC4CCC(C4)C3)CC1)CN2 (stereo not shown) [compound 85]
Emax ([1]; compound nos. 1-454): 65 to 85% | M1 Activity [1, 3]: +++ (activity was measured to be less than or equal to 0.7 μM) | Emax ([2]; compound nos. 1-454): 55 to 70% | M4 Activity [2, 4]: ++ (activity was measured to be between 0.1 μM and 4.0 μM)

CCOC(=O)N1CCC(N2CCC3(CC2)CN(C(=O)N2CCCC2)c2ccc(F)cc23)CC1 [compound 22]
Emax ([1]; compound nos. 1-454): 65 to 85% | M1 Activity [1, 3]: +++ (activity was measured to be less than or equal to 0.7 μM) | Emax ([2]; compound nos. 1-454): < 55% | M4 Activity [2, 4]: + (activity was measured to be greater than or equal to 4.0 μM)

CC(=O)N1CC2(CCN(C3CC4CCC(C3)N4C(=O)O[C@@H]3CCOC3)CC2)c2cc(F)ccc21 (stereo partly shown) [compound 67]
Emax ([1]; compound nos. 1-454): < 65% | M1 Activity [1, 3]: +++ (activity was measured to be less than or equal to 0.7 μM) | Emax ([2]; compound nos. 1-454): < 55% | M4 Activity [2, 4]: ++ (activity was measured to be between 0.1 μM and 4.0 μM)

CCCC1CCC(N2CCC3(CC2)CNc2ccccc23)CC1 (stereo not shown) [compound 334]
Emax ([1]; compound nos. 1-454): < 65% | M1 Activity [1, 3]: + (activity was measured to be greater than or equal to 3.0 μM) | Emax ([2]; compound nos. 1-454): < 55% | M4 Activity [2, 4]: + (activity was measured to be greater than or equal to 4.0 μM)

CC(=O)N1CC2(CCN(CC3CCOC3)CC2)c2cc(F)ccc21 (stereo not shown) [compound 135]
Emax ([1]; compound nos. 1-454): > 85% | M1 Activity [1, 3]: +++ (activity was measured to be less than or equal to 0.7 μM) | Emax ([2]; compound nos. 1-454): > 70% | M4 Activity [2, 4]: ++ (activity was measured to be between 0.1 μM and 4.0 μM)

CC(=O)N1CC2(CCN(C3CCCN(C(=O)OC(C)C)CC3)CC2)c2cc(F)ccc21 (stereo not shown) [compound 395]
M1 Activity ([1]; compound nos. 1-454): +++ (activity was measured to be less than or equal to 0.7 μM) | Emax ([1]; compound nos. 1-454): < 65% | M4 Activity ([2]; compound nos. 1-454): + (activity was measured to be greater than or equal to 4.0 μM) | Emax ([2]; compound nos. 1-454): < 55%

CCOC(=O)N1CCC(N2CCC3(CC2)CN(C(=O)C2CCCC2)c2ccc(F)cc23)CC1 [compound 17]
Emax ([1]; compound nos. 1-454): < 65% | M1 Activity [1, 3]: ++ (activity was measured to be between 0.7 μM and 3.0 μM) | Emax ([2]; compound nos. 1-454): 55 to 70% | M4 Activity [2, 4]: ++ (activity was measured to be between 0.1 μM and 4.0 μM)
